{"source": "patent US20160015064A1", "about": "“COMPOUNDS, COMPOSITIONS, AND METHODS FOR MODULATING SWEET TASTE” (CHROMOCELL CORPORATION, priority 2013, published 2016)", "type_in_all_cases": "in vivo, humans", "key": {"[1]": {"test_system": "perception of the sweet taste of an aqueous solution of sweetener", "assay": "Two-alternative forced choice sip and spit method (2AFC)", "details": "compound 20 ppm with positive 2AFC", "description": "The effect of the test compounds on the perception of the sweet taste of an aqueous solution of sweetener in humans was evaluated using a two-alternative forced choice “sip and spit” method (2AFC).\n(§1) The aqueous sweetener solutions were prepared by adding, fructose, sucrose or glucose (by weight), to water to achieve the desired concentration.\n(§2) Compounds were first prepared as a 500-fold concentrated stock solution in 100% ethanol. These concentrated stocks were then added to the aqueous sweetener solutions to result in a final ethanol concentration of 0.2%. The control (positive and negative) samples were also normalized to 0.2% ethanol. This level of ethanol was not seen to contribute any perceived sweetness.\nThe 2AFC test used for compound evaluation was a blind and randomized test where taste panelists (n=15) evaluate a pair of sweetener solutions at a time—one sample contains aqueous sweetener solution plus compound (i.e. test) while the other contains aqueous sweetener solution at higher concentration without compound (i.e. positive control). Each test sample was compared against a positive control. For example, if the test sample contained 1× sweetener concentration with compound (e.g. 5% sucrose with compound), the positive control sample contained a 1.1× sweetener concentration (e.g. 5.5% sucrose without compound).\nPanelists were instructed not to eat or drink (except water) for at least 1 h before the test. During the test, panelists were instructed to sip each sample, swirl it around their mouth and then expectorate. After tasting each sample in the pair, panelists were instructed to record the sample that is “sweeter” in taste. Panelists cleansed their palates by rinsing with water, eating a cracker and waiting for an interval of about 5 minutes. Each pair was tasted twice. All samples were tasted at ambient temperatures. Data were analyzed using binomial probabilities.\nApproximate levels of sweetness enhancement in column 5 of Table 2 were calculated as follows:\nApproximate levels of sweetness enhancement=Sweetener concentration of positive control surpassed by the test sample, divided by sweetener concentration for compound-containing sample (e.g. 1.15×=5.75% sucrose/5% sucrose)."}, "[2]": {"test_system": "perception of sweet taste, in an aqueous solution", "assay": "Inherent sweetness assessment, difference from control sip and spit method", "details": "compound 10 ppm in water, no sweetener", "description": "The aqueous sucrose solutions were prepared by adding, sucrose (by weight), to water to achieve the desired concentration.\nas §2, with “water” for “the aqueous sweetener solutions”, “(including positive control)” for “(positive and negative)”\nThe intrinsic effect of test compounds on the perception of sweet taste, in an aqueous solution, in humans was evaluated using a difference from control “sip and spit” method employing a verbal category scale.\nIn this method, panelists (n=12) evaluate one pair of samples at a time—one sample contains water plus compound (i.e. test) while the other contains water without compound (i.e. control). Panelists were instructed to first taste the un-blinded control followed by the test sample and asked to rate the size of sweetness difference between the test and control sample, using a 6 point verbal category scale:\nVerbal category scale • No difference • Slight difference • Slight/moderate difference • Moderate difference • Moderate/large difference • Very large difference\n4 blinded controls comprising of one negative control (0% sucrose) and 3 positive control samples (0.5% sucrose, 1% sucrose and 2% sucrose) were also included as part of the test to evaluate the ability of panelists to rank the difference in sweetness perception between 0.5% sucrose, 1% sucrose and 2% sucrose compared to 0% sucrose control.\n(§3) Panelists were instructed not to eat or drink (except water) for at least 1 h before the test. During the test, panelists were instructed to sip each sample, swirl it around their mouth and then expectorate. Panelists cleansed their palates by rinsing with water, eating a cracker and waiting for an interval of about 5 minutes. All samples were tasted at ambient temperatures.\nThe verbal category response for each test sample was converted into an integer numerical value, from 1 to 6 (e.g. no difference=1 and very large difference=6). Total numbers of panelist responses per integer value were plotted as a histogram. An assessment was then made, comparing mean, mode of the numerical value, and the distribution of the histogram plots, for test samples as compared to that of the positive (0.5% sucrose, 1% sucrose and 2% sucrose) and negative control (0% sucrose) sample. Inherent sweetness levels are then correlated to the positive controls as discrete bins: • Bin 1: 0% sucrose • Bin 2: >0% sucrose—<0.5% sucrose • Bin 3: 0.5% sucrose • Bin 4: >0.5% sucrose—<1% sucrose • Bin 5: 1% sucrose • Bin 6: >1% sucrose—<2% sucrose • Bin 7: 2% sucrose"}, "[3]": {"test_system": "perception of the sweet taste of an aqueous solution of sweetener", "assay": "Ranking sip and spit test of sweetness perception (R index)", "details": "5% sucrose test sample, vs negative control", "description": "The effect of the test compounds on the perception of the sweet taste of an aqueous solution of sweetener in humans was evaluated using a ranking “sip and spit” method.\nas §1\nCompounds were first prepared as a 500-fold concentrated stock solution in 100% ethanol. These concentrated stocks were then added to the aqueous sweetener solutions to result in a final ethanol concentration of 0.2%. The control (positive and negative) samples were also normalized to 0.2% ethanol.\nIn the ranking test used for compound evaluation, taste panelists (n=15), rank samples in increasing order of sweetness. One set, comprising of 6 samples, was presented to each panelists at a given time and are asked to rank them in order of increasing sweetness.\nas §3, with “expectorate. After tasting each set, panelists were instructed to rank the 6 samples within the set from least sweet to most sweet. Where rank 1—is lowest in sweetness and rank 6—is highest in sweetness.” for “expectorate.”, “10” for “about 5”, “temperatures. Each sample was tasted twice.” for “temperatures.”\nR index analysis was utilized to determine the degree of difference between a test and control sample. It indicates the level of discrimination between two samples. […] A positive control sample was used to assess the ability of the panelists to accurately discriminate sweetness perception differences from the negative control."}, "[4]": {"details": "compound 10 ppm, significant at R index ≧60"}}, "note": "Structures can show the parent of a compound that is named as a salt."}
{"smiles": "COc1ccc(C2CC(=O)c3c(O)cc(F)cc3O2)cc1O", "note": "(centres unmarked) [Compound 15, 7-fluoro-5-hydroxy-2-(3-hydroxy-4-methoxyphenyl)chroman-4-one]", "values": [{"measurement": "Fold increase in perceived sweetness", "setting": "[1]; test sample 4% fructose", "result": ">1.1", "unit": "X"}, {"measurement": "Correlated Inherent Sweetness Assessment", "setting": "[2]", "result": 0, "unit": "% sucrose"}]}
{"smiles": "O=C1CC(c2cccc(O)c2)Oc2cccc(O)c21", "note": "(centres unmarked) [Compound 12, 5-hydroxy-2-(3-hydroxyphenyl)chroman-4-one]", "values": [{"measurement": "R Index Score", "setting": "[3]; compound 2.5 ppm", "result": 62}]}
{"smiles": "COc1ccc(C2CC(=O)c3c(O)cc(OCCCC(=O)O)cc3O2)cc1O", "note": "(centres unmarked) [Compound 4, 4-((5-hydroxy-2-(3-hydroxy-4-methoxyphenyl)-4-oxochroman-7-yl)oxy)butanoic acid]", "values": [{"measurement": "Fold increase in perceived sweetness", "setting": "[1]; test sample 4% fructose", "result": ">1.1", "unit": "X"}, {"measurement": "Fold increase in perceived sweetness", "setting": "[1]; test sample 5% sucrose", "result": ">1.1", "unit": "X"}]}
{"smiles": "COc1ccc(C2CC(=O)c3c(O)cc(C)cc3O2)cc1O", "note": "(centres unmarked) [Compound 6, 5-hydroxy-2-(3-hydroxy-4-methoxyphenyl)-7-methylchroman-4-one]", "values": [{"measurement": "R Index Score", "setting": "[3]; [4]", "result": 82}]}
{"smiles": "COc1ccc(C2CC(=O)c3c(Cl)cc(O)cc3O2)cc1O", "note": "(centres unmarked) [Compound 17]", "values": [{"measurement": "Fold increase in perceived sweetness", "setting": "[1]; test sample 4% fructose", "result": 1.1, "unit": "X"}]}
{"smiles": "O=C1CC(c2cccc(O)c2)Oc2cc(O)cc(O)c21", "note": "(centres unmarked) [Compound 10, 5,7-dihydroxy-2-(3-hydroxyphenyl)chroman-4-one]", "values": [{"measurement": "R Index Score", "setting": "[3]; [4]", "result": 65}]}
{"smiles": "COC(=O)c1cccc(C2CC(=O)c3c(O)cc(O)cc3O2)c1", "note": "(centres unmarked) [Compound 13, methyl 3-(5,7-dihydroxy-4-oxochroman-2-yl)benzoate]", "values": [{"measurement": "R Index Score", "setting": "[3]; [4]", "result": 61}]}
{"smiles": "O=C1CC(c2ccc(O)cc2)Oc2cccc(O)c21", "note": "(centres unmarked) [Compound 7, 5-hydroxy-2-(4-hydroxyphenyl)chroman-4-one]", "values": [{"measurement": "R Index Score", "setting": "[3]; [4]", "result": 71}]}
{"smiles": "O=C1CC(c2ccc(O)c(O)c2)Oc2cccc(O)c21", "note": "(centres unmarked) [Compound 8, 2-(3,4-dihydroxyphenyl)-5-hydroxychroman-4-one]", "values": [{"measurement": "R Index Score", "setting": "[3]; [4]", "result": 69}]}
{"smiles": "COc1cc(C2CC(=O)c3c(O)cccc3O2)ccc1C", "note": "(centres unmarked) [Compound 16]", "values": [{"measurement": "Fold increase in perceived sweetness", "setting": "[1]; test sample 5% sucrose", "result": ">1.1", "unit": "X"}]}
{"smiles": "COc1ccc(C2CC(=O)c3c(O)cc(OCCCS(=O)(=O)O)cc3O2)cc1O", "note": "(centres unmarked) [Compound 14, 3-((5-hydroxy-2-(3-hydroxy-4-methoxyphenyl)-4-oxochroman-7-yl)oxy)propane-1-sulfonic acid potassium salt]", "values": [{"measurement": "Fold increase in perceived sweetness", "setting": "[1]; test sample 4% fructose", "result": ">1.1", "unit": "X"}]}
{"smiles": "CCCOc1ccc(C2CC(=O)c3c(O)cc(O)cc3O2)cc1O", "note": "(centres unmarked) [Compound 5, 5,7-dihydroxy-2-(3-hydroxy-4-propoxyphenyl)chroman-4-one]", "values": [{"measurement": "Fold increase in perceived sweetness", "setting": "[1]; test sample 4% fructose", "result": ">1.1", "unit": "X"}]}
